Results from patent US12077503B2, “Substituted cyclic amides and their use as herbicides” (FMC CORPORATION, priority 2015, dated 2024).
Read-outs that look alike come from different tables or passages of the source.

Legend:
rice (Oryra sativa) = assay: Test B flooded paddy test; assay type: in vivo; details: Oryza sativa, Flood, 250 g ai/ha, read-out: Rice plant response rating
In short: (§1)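 Compound goes directly into floodwater once pots are flooded 3 cm above soil, targeting plants at two leaves; the water depth is then held for the test duration. Plants sit 13–15 d in a greenhouse and are rated visually, 100 denoting complete control.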

[1] = test system: barnyardgrass (Echinochloa crus-galli); assay: Test B flooded paddy test; assay type: in vivo; details: Echinochloa crus-galli, Flood, 250 g ai/ha, read-out: Barnyardgrass plant response rating
In short: as §1

[2] = test system: ducksalad (Heteranthera limosa); assay: Test B flooded paddy test; assay type: in vivo; details: Heteranthera limosa, Flood, 250 g ai/ha, read-out: Ducksalad plant response rating
In short: as §1

[3] = test system: sedge, umbrella (small-flower umbrella sedge, Cyperus difformis); assay: Test B flooded paddy test; assay type: in vivo; details: Cyperus difformis, Flood, 250 g ai/ha, read-out: Sedge, Umbrella plant response rating
In short: as §1

[4] = test system: giant foxtail (Setaria faberii); assay: Test A preemergence; assay type: in vivo; details: Setaria faberi, pre-emergence, 240 h; for pest or weed control at 125 g/ha: 125 g ai/ha; for pest or weed control at 500 g/ha: 500 g ai/ha
In short: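 Ratings of 0 (no effect) to 100 (complete control) come from visual comparison with untreated controls roughly 10 d after treatment. Test chemicals, formulated in a non-phytotoxic solvent mixture with surfactant, were applied either as a preemergence directed soil spray on seeded soil or postemergence to one- to two-leaf plants 2 to 10 cm tall.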

[5] = scale of 0 to 100 where 0 is no effect and 100 is complete control
[6] = Preemergence, visual injury rating after approximately 10 d, read-out: Foxtail, Giant plant response rating (0 to 100 scale, 0 is no effect, 100 is complete control)
[7] = preemergence, visual injury rating about 10 d after treatment, 0 to 100 scale (0 no effect, 100 complete control), read-out: Foxtail, Giant plant response rating
[8] = preemergence, 0 to 100 scale where 0 is no effect and 100 is complete control, read-out: Foxtail, Giant plant response rating
[9] = Preemergence, visual injury vs untreated controls after approximately 10 d, read-out: Foxtail, Giant plant response rating (0 to 100 scale where 0 is no effect and 100 is complete control)
[10] = 0 to 100 scale where 0 is no effect and 100 is complete control
[11] = preemergence, 0 to 100 scale where 0 is no effect and 100 is complete control, approx. 10 d, read-out: Foxtail, Giant plant response rating

Row | Compound | pest or weed control at 250 g/ha (rice (Oryra sativa); [5]) [%] | pest or weed control at 250 g/ha [1, 5] [%] | pest or weed control at 250 g/ha [2, 5] [%] | pest or weed control at 250 g/ha [3, 5] [%] | pest or weed control at 125 g/ha [4, 6] [%] | pest or weed control at 500 g/ha [4, 7] [%] | melting point [°C] | pest or weed control at 125 g/ha [4, 8] [%] | pest or weed control at 500 g/ha [4, 9] [%] | pest or weed control at 250 g/ha (rice (Oryra sativa); [10]) [%] | pest or weed control at 250 g/ha [1, 10] [%] | pest or weed control at 250 g/ha [2, 10] [%] | pest or weed control at 250 g/ha [3, 10] [%] | pest or weed control at 125 g/ha [4, 11] [%] | pest or weed control at 500 g/ha [4, 8] [%]
1 | O=C1NC[C@H](c2cc(C(F)(F)F)ccn2)[C@H]1C(=O)Nc1ccccc1F [Compound 948] | 0 | 0 | 0 | 0 | 70 | 90 | 115 to 119 |  |  |  |  |  |  |  | 
2 | CCc1cc([C@H]2CNC(=O)[C@@H]2C(=O)Nc2ccccc2F)cs1 [Compound 913] | 0 | 0 | 90 | 0 |  |  | 96 to 100 | 50 | 90 |  |  |  |  |  | 
3 | CN1CC(c2cccc(Br)c2)C(C(=O)Nc2ccccc2F)C1=O (stereo not drawn) [Compound 1132] |  |  |  |  |  |  | 142 to 146 |  |  | 15 | 60 | 90 | 40 | 100 | 100
4 | O=C1NC[C@H](c2ccc(F)c(OC(F)(F)C(F)(F)Br)c2)[C@H]1C(=O)Nc1ccccc1F [Compound 1134] |  |  |  |  |  |  | 133 to 137 |  |  | 0 | 0 | 0 | 0 | 70 | 90
5 | COc1cccc(C2CN(C)C(=O)C2C(=O)Nc2cccc(F)c2F)c1 (stereo not drawn) [Compound 886] | 0 | 75 | 50 | 0 |  |  | 137 to 140 | 90 | 100 |  |  |  |  |  | 
6 | Cc1ccc([C@H]2CCNC(=O)[C@@H]2C(=O)Nc2cccc(F)c2F)cc1 [Compound 973] | 0 | 0 | 100 | 0 | 90 | 90 | 174 to 176 |  |  |  |  |  |  |  | 
7 | O=C(Nc1ccccc1C(F)(F)F)[C@H]1C(=S)NC[C@@H]1c1ccc(C(F)(F)F)cc1 (racemic) [Compound 1049] |  |  |  |  | 80 | 90 |  |  |  | 0 | 20 | 70 | 0 |  | 
8 | CN1C[C@H](c2cc(F)cc(F)c2)[C@@H](C(=O)Nc2cnccc2Cl)C1=O [Compound 1096] |  |  |  |  |  | 0 |  |  |  | 0 | 0 | 65 | 0 | 0 | 
9 | Cc1ccc([C@H]2CN(C)C(=O)[C@@H]2C(=O)Nc2ccccc2F)cc1C [Compound 1038] |  |  |  |  | 100 | 100 |  |  |  | 0 | 65 | 100 | 0 |  | 
